In US6586410B1, “Lipid-nucleic acid particles prepared via a hydrophobic lipid-nucleic acid complex intermediate and use for gene transfer” (Inex Pharmaceuticals Corporation, priority 1995, dated 2003):
Blank lines part the entries; values can stand above or below the molecule they belong to.

Columns and labels:
[1] = Plasmid encapsulation (protection from external medium) by anion exchange chromatography on DEAE Sepharose CL-6B; type: physicochemical; settings: for cationic lipid concentration required for optimal plasmid encapsulation: detergent dialysis
Method: The extent of encapsulation or protection of the plasmid from the external medium was assessed by anion exchange chromatography as follows: a 50 μl aliquot of each sample was eluted on a DEAE Sepharose CL-6B column and the fractions were assessed for both ^3H-plasmid and ^14C-lipid by scintillation counting. Any exposed negative charges, such as those present on DNA molecules will bind-to the anion exchange column and will not elute with the ^14C-lipid. DNA which has its negative charge, “protected” or non-exposed will not bind to the anion exchange resin and will elute with the ^14C-lipid. Alternatively, plasmid DNA was measured using the indicator dye, PicoGreen®.

plasmid DNA [2] = assay: Bligh and Dyer extraction: DNA partitioning between aqueous and organic phase; type: physicochemical; settings: for amount of lipid for complete partitioning of the DNA into the organic phase: preformed liposomes; for DNA partitioning into the organic phase versus charge ratio: polyvalent lipids compared with monovalent cationic lipids; for DNA partitioning: nonlipid cations, charge ratios up to and in excess of 4
Method: […] This mixture of solvents and water is equivalent to that used in the preparation of a Bligh and Dyer monophase (Bligh and Dyer, Can. J. Biochem. Physiol. 37:91-97 (1959)). Typically, DNA was added to achieve a final concentration of […] in solution while lipid was added at various concentrations. Trace quantities of 3H-plasmid DNA were added such that 2000 to 4000 dpm were present per 10 g unlabelled DNA. The reaction mixtures were incubated at room temperature for 30 min in a total volume of 1 mL. Subsequently the Bligh and Dyer monophase was partitioned into a two phase system by the addition of water and chloroform (250 L each). The samples were mixed by vortexing and the separation of the lower organic and upper aqueous phases was facilitated by centrifugation at 2000 rpm for 5 min at room temperature. The aqueous phase was removed and retained for scintillation counting. The solvent phase was dried using a stream of nitrogen gas, and the resulting film was resuspended in SOLVABLE solubilizing agent (Dupont NEN, Boston, Mass., USA) and incubated at 50° C. for 1 hour. […] PICOFLUOR scintillant (Canberra Packard, Meriden, Conn., USA) was added to all samples and the radioactivity (3H-DNA) was measured using a Packard TR 1900 Scintillation Counter (Canberra Packard).
Assays evaluating the stability of charge-neutralized, lipid-nucleic acid complexes were done in the presence of varying concentration of NaCl and OGP. Briefly, cationic lipid-nucleic acid complexes were prepared under conditions where 100% of the plasmid was expected to be recovered in the organic phase. NaCl or OGP was then added to the monophase system and incubations carried out at room temperature for 15 min. Bligh and Dyer extractions were performed as described above. The binding of calcium, L-lysine, and poly-L-lysine to the plasmid was evaluated using a modification of the above procedure. These nonlipid cationic materials were dissolved at various concentrations in sterile distilled water and incubated with the plasmid ([…] final concentration in water) at room temperature for 30 min in a final volume of 250 L. Reaction volumes were adjusted to 1 mL with chloroform:methanol (1:2.1) to produce a monophase. Bligh and Dyer extractions were then performed as described.

plasmid DNA [3] = assay: Agarose gel electrophoresis: DNA mobility; type: physicochemical
Method: Complexes involving plasmid and poly-L-lysine were formed at a nucleic acid concentration of 10 µg/mL and a 1:1 charge ratio in the presence of 100 mM OGP. Complexes involving the cationic lipid DODAC and plasmid were formed at a plasmid concentration of 10 µg/mL and increasing concentrations of DODAC (10 to 320 nmoles/mL). The mixtures were incubated at room temperature for 30 min prior to loading onto a 0.8% agarose gel. Electrophoresis was carried out in TBE buffer according to standard techniques (Sambrook, et al., Molecular Cloning: A Laboratory Manual, Second Edition, Cold Spring Harbor, N.Y. (1989)). Nucleic acids were visualized after staining the gel with ethidium bromide ([…], 20 min) by photography with UV transillumination.

plasmid DNA [4] = settings: DNA condensed by addition of polylysine (Reimer et al., 1995); cited from earlier work
plasmid DNA [5] = assay: TO-PRO-1 dye intercalation assay (DNA condensation); type: physicochemical; settings: Bligh and Dyer monophase; 1 μM TO-PRO-1; 533 nm
Method: The fluorochrome TO-PRO-1 was used to evaluate the state of condensation of the plasmid in the charge-neutralized lipid-nucleic acid complex. TO-PRO-1 was used in this study due to its stable intercalation into the plasmid as well as the high sensitivity in the fluorescence detection compared with the more common intercalator ethidium bromide (see, Hirons, et al., Cytometry 15:129-140 (1994)). Plasmid was dissolved in either the Bligh and Dyer monophase or in 100 mM OGP. Poly-L-lysine or DODAC were each added to 10 g plasmid at a 1:1 charge ratio.
Evaluation of the hydrophobic, charge-neutralized lipid-nucleic acid complexes was carried out by assessing the ability of a small fluorescent probe to bind to the nucleic acid in the complex. […] TO-PRO-1 was then added to a final concentration of 1 μM and fluorescence was measured at 533 nm (probe excitation at 509 nm). […] However, when plasmid DNA was added (10 μg/mL) there was a >600 fold increase in fluorescence at 533 nm. […]
The fluorochrome (TO-PRO-1) was used to evaluate the state of condensation of the DNA in the lipid-nucleic acid particle. […] To measure fluorescence, spectrofluorometric measurements were performed using a Luminescence Spectrometer 50B (Perkin Elmer Ltd., Buckinghamshire, England) with an excitation wavelength of 509 nm and an emission wavelength of 533 nm. […]

Molecule: 1-O-(2′-(ω-methoxypolyethyleneglycol)succinoyl)-2-N-myristoyl-sphingosine [PEG-C14]
PEG-C14 concentration giving best entrapment ([1]; 7.5% DODAC and DOPE, dialysis method): 10 mol %

Molecule: CCCCCCCCCCCCCCOCC(C[N+](C)(C)CCO)OCCCCCCCCCCCCCC.[Br-] (stereo not drawn) [DMRIE, N-(1,2-dimyristyloxyprop-3-yl)-N,N-dimethyl-N-hydroxyethyl ammonium bromide]
cationic lipid concentration required for optimal plasmid encapsulation [1]: 8%

Molecule: CCCCCCCCCCCCCCCCCCN(CCCCCCCCCCCCCCCCCC)C(=O)CNC(=O)C(CCCNCCCN)NCCCN (stereo not drawn) [DOGS]
amount of lipid for complete partitioning of the DNA into the organic phase (plasmid DNA [2]; 10 μg DNA): approximately 10 nmoles
DNA partitioning into the organic phase versus charge ratio (plasmid DNA [2]): a slightly greater charge ratio was required

Molecule: [Ca+2].[Cl-].[Cl-] [calcium, calcium chloride]
DNA partitioning (plasmid DNA [2]): majority of the DNA was invariably recovered in the aqueous phase

Molecule: NCCCC[C@H](N)C(=O)O [lysine, L-lysine]
DNA partitioning (plasmid DNA [2]): majority of the DNA was invariably recovered in the aqueous phase

Continued, in another order:

DNA partitioned into the organic phase (plasmid DNA [2]; 10 μg DNA, 40 nmoles DODAC, OGP up to 20 mM): greater than 99%
cationic lipid concentration required for optimal plasmid encapsulation [1]: 8%
DNA mobility in agarose gel (plasmid DNA [3]; addition of 320 nmoles of DODAC): decrease in DNA migrating into the gel
Molecule: CCCCCCCC/C=C\CCCCCCCC[N+](C)(C)CCCCCCCC/C=C\CCCCCCCC.[Cl-] [DODAC, N,N-dioleyl-N,N-dimethylammonium chloride]

amount of lipid for complete partitioning of the DNA into the organic phase (plasmid DNA [2]; 10 μg DNA): approximately 10 nmoles
stability of complex in presence of NaCl (plasmid DNA [2]; Na+ in a 300-fold molar excess): did not cause partitioning
Molecule: CCCCCCCC/C=C\CCCCCCCCOCC(C[N+](C)(C)CCNC(=O)C(CCCNCCCN)NCCCN)OCCCCCCCC/C=C\CCCCCCCC.O=C([O-])C(F)(F)F (stereo not drawn) [DOSPA, N-(-(2,3-dioleyloxy)propyl)-N-(2-(sperminecarboxamido)ethyl)-N,N-dimethylammonium trifluoroacetate]
DNA partitioning into the organic phase versus charge ratio (plasmid DNA [2]): a slightly greater charge ratio was required

cationic lipid concentration required for optimal plasmid encapsulation [1]: 6.5%
Molecule: CCCCCCCC/C=C\CCCCCCCCOCC(C[N+](C)(C)C)OCCCCCCCC/C=C\CCCCCCCC.[Cl-] (stereo not drawn) [DOTMA, N-(1-(2,3-dioleyloxy)propyl)-N,N,N-trimethylammonium chloride]

cationic lipid concentration required for optimal plasmid encapsulation [1]: 6.5%
Molecule: CCCCCCCCCCCCCCCCCC[N+](C)(C)CCCCCCCCCCCCCCCCCC.[Cl-] [DSDAC]

TO-PRO-1 fluorescence / binding to DNA (plasmid DNA [5]): no fluorescence was observed
DNA mobility in agarose gel (plasmid DNA [3]; 1:1 charge ratio, 100 mM OGP): significantly reduced mobility
Molecule: poly L-lysine hydrobromide [poly-L-lysine]
DNA partitioning (plasmid DNA [2]): majority of the DNA was invariably recovered in the aqueous phase
condensation index (plasmid DNA [4]): ≈ 1.0
